Experimental data reported in patent US20220378739A1, “NATURAL KILLER CELL IMMUNOTHERAPY FOR THE TREATMENT OF GLIOBLASTOMA AND OTHER CANCERS” (BOARD OF REGENTS, THE UNIVERSITY OF TEXAS SYSTEM, priority 2019, published 2022).

How the values were obtained:
K562 targets = format: cell-based, human; conditions: NK cells alone, inhibitor 10 μM, 48 hours
Experimental: (§1) NK cells were co-cultured for 5 hours with K562 or GSCs target cells at an optimized effector:target ratio of 5:1 together with CD107a PE-CF594 (BD Biosciences), monensin (BD GolgiStopTM) and BFA (Brefeldin A, Sigma Aldrich). NK cells were incubated without targets as the negative control and stimulated with PMA (50 ng/mL) and ionomycin ([…], Sigma Aldrich) as positive control. Cells were collected, washed and stained with surface antibodies (mentioned above), fixed/permeabilized (BD Biosciences) and stained with IFN-7 v450 and TNF-α Alexa700 (BD Biosciences) antibodies.
(§2) NK cell cytotoxicity was assessed using chromium (siCr) release assay. Briefly, K562 or GSCs target cells were labeled with siCr (PerkinElmer Life Sciences, Boston, Mass.) at 50 μCi/5×10^5 cells for 2 hours. ^51Cr-labeled K562/GSC targets (5×105) were incubated for 4 h with serially diluted magnetically isolated NK cells in triplicate. Supernatants were then harvested and analysed for ^51Cr content.
For studies of NK cell suppression by GSCs and human astrocytes, magnetically selected healthy NK cells were cultured in Serum-free Stem Cell Growth Medium (SCGM; CellGro/CellGenix) supplemented with 5% glutamine, 5 μM HEPES (both from GIBCO/Invitrogen), and 10% FCS (Biosera) in 96-well flat-bottomed plates (Nunc) at 100,000/100D11. NK cells were co-cultured either alone (positive control) or with GSCs or astrocytes at a 1:1 ratio for 48 hours at 37° C. before performing functional assays to assess NK cells cytotoxicity.
(§3) GSCs and purified NK cells were co-cultured for 48 hours in the presence of anti-TGFβ 123 (5 μg/ml) (R&D), HLA-ABC blocking antibody (clone W 6/32, Biolegend), CD44 blocking antibody (clone IM7, Biolegend), ILT-2 (CD85J) blocking antibody (clone HP-F1, ThermoFisher), CD155 blocking antibody (clone D171, GenTex), CD112 blocking antibody (clone TX31, Biolegend), 10 μM LY2109761, 10 μM galunisertib (LY2157299), 10 μM Cilengitide (Cayman Chemical) or 1 μM MMP-2/MMP-9 inhibitor I (Millipore). Cytotoxicity assays were then performed as described above.

[1] = test system: TGF-β1 Smad⅔ signaling pathway in NK cells; test: Phospho-Smad⅔ assay in NK cells co-cultured with GSCs; format: cell-based, human; conditions: healthy control NK cells + GSCs; inhibitor 10 μM
Experimental: as §3
NK cells were stained with Live/dead-aqua and CD56 ECD (Beckman Coulter) for 20 min in the dark at RT, washed with PBS fixed for 10 min in the dark. After one wash, the cells were permeabilized (Beckman Coulter kit) and stained with p-(5465/5467)-Smad2/p-(5423/5425)/Smad3-Alexa 647 mAb Phosflow antibody (BD Biosciences) for 30 minutes at room temperature. Cells incubated with 10 ng/ml recombinant TGF-β for 45 minutes in 37° C. were used as positive control.

[2] = literature; cited from earlier work
patient-derived GSCs = test: Xenogeneic (PDX) NSG mouse model of GBM; format: in vivo
Experimental: To test this prediction, a PDX mouse model of patient-derived GSC was used, in which, ffLuc+ patient-derived GSCs (0.5×10^6) were stereotactically implanted on day 0 through a guide-screw into the right forebrain of NOD/SCID/IL2Rγc null mice (n=4-5 per group). After 7 days, the mice were treated intratumorally with 2.0×10^6 human NK cells every 7 days for 11 weeks (FIG. 5A) with either galunisertib to block the TGF-β signaling or cilengitide to block the integrin pathway. Galunisertib was administered five times a week by oral gavage and cilengitide three times a week by intraperitoneal injection. Animals implanted with tumor that were either untreated or received NK cells alone, galunisertib alone or cilengitide alone served as controls.
To assess the anti-tumor effect of NK cells against GSCs in vivo, a NOD/SCID IL-2R7null (NSG) human xenograft model (Jackson Laboratories, Bar Harbor, Me.) was used. Intracranial implantation of GSCs into male mice was performed as previously described^55. A total of 60 mice were used. 0.5×10^5 GSCs were implanted intracranially into the right frontal lobe of 5 week old NSG mice using a guide-screw system implanted within the skull. To increase uniformity of xenograft uptake and growth, cells were injected into 10 animals simultaneously using a multiport Microinfusion Syringe Pump (Harvard Apparatus, Holliston, Mass.). Animals were anesthetized with xylazine/ketamine during the procedure. For in vivo bioluminescent imaging, GSCs were engineered to express luciferase by lentivirus transduction. Kinetics of tumor growth was monitored using weekly bioluminescence imaging (BLI; Xenogen-IVIS 200 Imaging system; Caliper, Waltham, Mass.). Signal quantitation in photons/second (p/s) was performed by determining the photon flux rate within standardized regions of interest (ROI) using Living Image software (Caliper). […] expanded donor peripheral blood NK cells^56 were injected intracranially via the guide-screw at day 7 post tumor implantation, and then every 7 days for 11 weeks. Mice were treated with either cilengitide or galunisertib (both from MCE Med Chem Express, Monmouth Junction, NJ) in the presence or absence of intracranial NK cell injection. Cilengitide was administered intraperitoneally 3 times a week starting at day 1 (250 μg/100 μl PBS) while galunisertib was administered orally (75 mg/kg) by gavage 5 days a week starting at day 1 (see FIG. 5A). […]
Brain tissue specimens from untreated control mice, mice treated with either NK cells alone, cilengitide alone, galunisertib alone or with combination therapy of NK+ cilengitide or NK+ galunisertib were collected. […] Sections lacking tumor were also evaluated for evidence of meningoencephalitis using a Leica DM 2500 light microscope by a board-certified veterinary pathologist. […]

GSC targets = test: NK cell functional assay (51Cr release; CD107a, IFN-γ, TNF-α) against GSC targets after co-culture with GSCs; format: cell-based, human; conditions: 48 hours co-culture with GSCs 1:1; inhibitor 10 μM
Experimental: as §1, §2
For studies of NK cell suppression by GSCs and human astrocytes, magnetically selected healthy NK cells were cultured in Serum-free Stem Cell Growth Medium (SCGM; CellGro/CellGenix) supplemented with 5% glutamine, 5 μM HEPES (both from GIBCO/Invitrogen), and 10% FCS (Biosera) in 96-well flat-bottomed plates (Nunc) at 100,000/100D11. […]

Cc1cccc(-c2nn3c(c2-c2ccnc4ccc(C(N)=O)cc24)CCC3)n1 [galunisertib]
NK cell function (CD107a, IFN-γ, TNF-α response to K562), NK cells without GSCs (K562 targets): neither inhibitor affected NK cell function | p-Smad⅔ expression (MFI) in NK cells co-cultured with GSCs [1]: prevented GSCs from activating the TGF-β1 Smad⅔ signaling pathway in NK cells | safety in glioblastoma patients [2]: has been used safely in GBM patients | tumor bioluminescence (BLI), first experiment (patient-derived GSCs; NK cells intratumorally every 7 days for 11 weeks, galunisertib oral 5 times a week, cilengitide i.p. three times a week): tumor bioluminescence rapidly increased | NK-mediated GBM killing / efficacy in PDX model of GBM (summary statements) (patient-derived GSCs; mouse, in vivo): enhances NK-mediated GBM killing in vivo | GSC-induced NK cell dysfunction: natural cytotoxicity against GSC targets (GSC targets): preserving the natural cytotoxicity of NK cells against K562 or GSC targets
